Drawing on PubChem BioAssay (NCI), this text covers TGI and GI50 for eight compounds.

Some test systems named below: KM12 colon; UO-31 renal; SR leukemia; PC-3 prostate; MCF7 breast; SF-539 CNS; ACHN renal; HS 578T breast; SK-MEL-2 melanoma; MALME-3M melanoma.
Common to all, as to assay: growth of human tumour cells (NCI), 48 h

Several values for one entry are separate records, joined by “and”; a condition that tells them apart may be missing. Identical values can stand only once.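 Tested at 5 concentrations; 48 h exposure; 96-well plates; endpoints linearly interpolated, else capped at highest concentration. GI50 = concentration required for 50% inhibition of growth. Definition used: TGI = concentration required for complete inhibition of growth.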

In the case of `CC(=O)[C@@]1(O)CC[C@H]2[C@@H]3C[C@H](C)C4=CC(=O)CC[C@]4(C)[C@H]3[C@@H](O)C[C@@]21C`, the TGI in the assay on KM12 colon, in the assay with UO-31 renal, with SR leukemia, in the assay with PC-3 prostate, with MCF7 breast and with SF-539 CNS was > 100000 nM in each case. For the same compound, the TGI with ACHN renal, in the assay on HS 578T breast, in the assay on SK-MEL-2 melanoma and with MALME-3M melanoma was > 100000 nM each time.

For the compound `COC(=O)c1c2c(c(C)[n+]([O-])c1C)C(=O)C=C(NCc1ccc(F)c(Cl)c1)C2=O`, the GI50 was 51.5 nM with KM12 colon; 1050 nM with UO-31 renal; 381 nM in the assay on SR leukemia; 245 nM in the assay on PC-3 prostate; 169 nM in the assay with MCF7 breast; 604 nM in the assay on SF-539 CNS. In addition, the GI50 in the assay with ACHN renal is 126 nM; in the assay on HS 578T breast it was 1620 nM; in the assay with SK-MEL-2 melanoma it was 677 nM; in the assay with MALME-3M melanoma it was 149 nM. Moreover, the TGI turned out to be 1580 nM with KM12 colon; 2370 nM with UO-31 renal; 6730 nM in the assay on SR leukemia; 4020 nM in the assay with PC-3 prostate; 892 nM with MCF7 breast; 1710 nM with SF-539 CNS. In addition, the TGI with ACHN renal was 1810 nM; in the assay with HS 578T breast it was 6480 nM; in the assay on SK-MEL-2 melanoma it was 2500 nM; in the assay on MALME-3M melanoma, 332 nM.

For `O=C1NC(O)C(c2c[nH]c3ccccc23)=C1c1c[nH]c2ccccc12` (centres undefined), the GI50 with KM12 colon is > 25000 nM; in the assay on UO-31 renal it was 15700 nM; in the assay with SR leukemia, > 23700 nM; with PC-3 prostate, 24800 nM; with MCF7 breast it was > 25000 nM; in the assay on SF-539 CNS it was > 25000 nM. For the same compound, the GI50 with ACHN renal was > 25000 nM; in the assay on HS 578T breast, 25000 nM; in the assay with SK-MEL-2 melanoma, > 25000 nM; with MALME-3M melanoma, > 25000 nM. Moreover, the TGI in the assay on KM12 colon, in the assay on UO-31 renal, with SR leukemia, with PC-3 prostate, in the assay on MCF7 breast and in the assay with SF-539 CNS was > 25000 nM throughout. The TGI in the assay on ACHN renal, in the assay with HS 578T breast, in the assay with SK-MEL-2 melanoma and in the assay with MALME-3M melanoma was > 25000 nM in each case.

For `COc1cc2cc(Oc3ccc(NC(=O)Nc4cccc(C(F)(F)F)c4)cc3)c(C)nc2cc1OC`, the GI50 in the assay on KM12 colon was 1420 nM; with UO-31 renal, 1980 nM; in the assay on SR leukemia it was 1170 nM; in the assay with PC-3 prostate, 1390 nM; in the assay with MCF7 breast it was 1340 nM; in the assay on SF-539 CNS, 2480 nM. Besides, the GI50 was 1640 nM with ACHN renal, 1440 nM with HS 578T breast, 1280 nM with SK-MEL-2 melanoma and 1710 nM in the assay on MALME-3M melanoma. Moreover, the TGI amounted to 5920 nM with KM12 colon; 10800 nM with UO-31 renal; 3330 nM in the assay on SR leukemia; 5490 nM in the assay on PC-3 prostate; 5430 nM with MCF7 breast; 8740 nM in the assay on SF-539 CNS. In addition, the TGI in the assay on ACHN renal stood at 7710 nM; with HS 578T breast, 4220 nM; in the assay on SK-MEL-2 melanoma it was 2870 nM; with MALME-3M melanoma, 4900 nM.

For the compound `COc1ncc(-c2ccc3nccc(-c4ccnnc4)c3c2)cc1NS(=O)(=O)c1ccc(F)cc1F`, the GI50 in the assay with KM12 colon was 33 nM and 30.2 nM; in the assay on UO-31 renal, 2.13 nM and < 10 nM; in the assay with SR leukemia it was 16.9 nM and 20.3 nM; in the assay on PC-3 prostate, 4.32 nM and < 10 nM; in the assay with MCF7 breast it was 1.01 nM and < 10 nM; with SF-539 CNS, 7.46 nM and < 10 nM. In addition, the GI50 with ACHN renal was 10.4 nM and < 11.4 nM; in the assay on HS 578T breast, 2.12 nM and < 10 nM; in the assay with SK-MEL-2 melanoma, 19.4 nM and < 10 nM; with MALME-3M melanoma it was 4.73 nM and < 10 nM. Further, the TGI in the assay with KM12 colon was 1530 nM and 1580 nM; in the assay on SR leukemia, 499 nM and 345 nM; in the assay on PC-3 prostate, 2370 nM and 4460 nM; in the assay with MCF7 breast, > 10000 nM and 11000 nM; with SF-539 CNS, 58.7 nM and 46.8 nM; in the assay on ACHN renal, > 74300 nM. The TGI in the assay with HS 578T breast is 43.3 nM and 23 nM; in the assay on SK-MEL-2 melanoma it was 227 nM and 150 nM; with MALME-3M melanoma, 114 nM and 22.2 nM.

As for `O=C(c1ccco1)c1nc2cc(Cl)ccc2[n+]([O-])c1C(F)(F)F`, the GI50 was 29300 nM in the assay with KM12 colon; > 100000 nM with UO-31 renal; 17100 nM in the assay on SR leukemia; 13700 nM with PC-3 prostate; 41000 nM in the assay with MCF7 breast; > 100000 nM with SF-539 CNS. Also, the GI50 was 51200 nM in the assay with ACHN renal, > 100000 nM in the assay on HS 578T breast, > 100000 nM in the assay on SK-MEL-2 melanoma and 47900 nM in the assay with MALME-3M melanoma. Moreover, the TGI with KM12 colon was > 100000 nM; in the assay with UO-31 renal, > 100000 nM; in the assay with SR leukemia, 44300 nM; with PC-3 prostate, 41400 nM; in the assay with MCF7 breast it was > 100000 nM; in the assay with SF-539 CNS, > 100000 nM. For the same compound, the TGI in the assay on ACHN renal, in the assay on HS 578T breast, with SK-MEL-2 melanoma and with MALME-3M melanoma was > 100000 nM each time.

As to `O=c1c2ccccc2n(C[C@H]2CO2)c2ccccc12`, the GI50 with KM12 colon was 2190 nM; in the assay on UO-31 renal, 1720 nM; in the assay on SR leukemia, 302 nM; in the assay with PC-3 prostate, 2040 nM; in the assay with MCF7 breast it was 390 nM; in the assay with SF-539 CNS, 1770 nM. Moreover, the GI50 in the assay with ACHN renal was 886 nM; in the assay with HS 578T breast, 2050 nM; in the assay on SK-MEL-2 melanoma, 1960 nM; with MALME-3M melanoma it was 1650 nM. For the same compound, the TGI in the assay with KM12 colon came to 7020 nM; in the assay on UO-31 renal, 4960 nM; in the assay with SR leukemia, 4370 nM; in the assay with PC-3 prostate it was 8340 nM; in the assay with MCF7 breast, 2980 nM; in the assay on SF-539 CNS it was 3680 nM. Moreover, the TGI in the assay with ACHN renal came out at 3900 nM; with HS 578T breast, 5890 nM; in the assay on SK-MEL-2 melanoma, 3830 nM; in the assay with MALME-3M melanoma, 3190 nM.

`Cc1c(-c2c(-c3ccc(F)o3)sc3ncnc(O[C@H](Cc4ccccc4OCc4ccnn4CC(F)(F)F)C(=O)O)c23)ccc(OCCN2CCN(C)CC2)c1Cl`: the GI50 in the assay with KM12 colon is 4000 nM; with UO-31 renal, 6250 nM; with SR leukemia, 162 nM; with PC-3 prostate it was 3160 nM; in the assay with MCF7 breast, 375 nM; with SF-539 CNS it was 2890 nM. The GI50 in the assay with ACHN renal is 6460 nM; in the assay with HS 578T breast, 1530 nM; in the assay with SK-MEL-2 melanoma, 30 nM; in the assay with MALME-3M melanoma, 3370 nM. Moreover, the TGI was determined as 7990 nM in the assay with KM12 colon; 18600 nM in the assay on UO-31 renal; 2010 nM in the assay with SR leukemia; 7280 nM in the assay on PC-3 prostate; 4610 nM with MCF7 breast; 6270 nM in the assay with SF-539 CNS. The TGI in the assay on ACHN renal is 19000 nM; with HS 578T breast, 9420 nM; in the assay with SK-MEL-2 melanoma, 97 nM; with MALME-3M melanoma it was 7520 nM.
